Several values for one entry are separate records, joined by “and”; a condition that tells them apart may be missing. Equal entries are not always repeated. Numbers after ± are expanded uncertainties.
Conditions: Liquid; for mass density: 293.2 K, 101.33 kPa, Vibrating tube method; for vapor or sublimation pressure: Ebulliometric method (Recirculating still)

SMILES | mass density [kg/m3] | vapor or sublimation pressure (371.3 K) | vapor or sublimation pressure (371.4 K) [kPa] | vapor or sublimation pressure (404.6 K) [kPa] | vapor or sublimation pressure (428.8 K) [kPa] | vapor or sublimation pressure (357.5 K) [kPa]
CCCCCCC [heptane] | 683.53 ± 0.27 | 100.91 ± 1 kPa and 100.6 ± 1 kPa | 100.95 ± 1 |  |  | 
Clc1ccccc1 [chlorobenzene] | 1106.07 ± 0.3 |  |  | 100.82 ± 1 |  | 
Brc1ccccc1 [bromobenzene] | 1495.28 ± 0.48 |  |  |  | 100.91 ± 1 | 
Fc1ccccc1 [fluorobenzene] | 1022.27 ± 0.27 |  |  |  |  | 100.55 ± 1

Reference: the NIST ThermoML archive (doi:10.1016/j.fluid.2005.11.020)
